For one compound, phospholipidosis judgement and microsomal CLint results are on record in patent publication US8653304B2, “2,3-dihydro-1H-indene-2-yl urea derivative and pharmaceutical application of same” (Toray Industries, Inc., priority 2009, dated 2014).

Where a name gives a salt, the structure may show the parent alone.

Series [1] deals with U937 cells. The series can be described thus: Ability to induce drug-induced phospholipidosis (U937, Nile red, flow cytometer). To be noted: 48 hours, 20 μM, fluorescence intensity compared to valproic acid 300 μM. The class given is cell-based, human. The procedure:
The evaluation of Comparative Compound 4c, which was a comparative control compound, was carried out by a method partially modified from the method described in Cell Biology and Toxicology (2003, Vol. 19, pp. 161-176).
Each test compound was mixed with U937 cells, which are a cell line derived from human monocytes, and the cells were cultured in the presence of 5% CO2 at 37° C. for 48 hours. The cell suspension after the culturing was replaced with a PBS solution containing Nile red (Invitrogen) which is a phospholipid staining solution, and the resulting mixture was allowed to react in the dark at room temperature for 10 minutes. After centrifugal washing with PBS solution, the fluorescence intensity was measured with a flow cytometer (Becton Dickinson) (Excitation Wavelength: 488 nm, Detection Region: 515-545 nm). As a negative control substance, valproic acid (300 μM) was used. […] Each test compound was dissolved in DMSO before use, and the resulting solution was added to the cells such that the final concentration of DMSO was 1%.

The test system of series [2] is Human CYP (Cytochrome P450). Kind of series: Metabolic stability in human CYP (human liver microsomes). The class given is in vitro ADME. To be noted: human liver microsomes 0.5 mg/mL, NADPH, 37° C., comparative control compounds 5 μM. The procedure: Each test compound was mixed at a concentration of 2 μM with a phosphate buffer solution containing Human liver microsomes (Xenotech) in an amount of 0.5 mg/mL. Thereafter, NADPH was added thereto, and the obtained mixture was allowed to react at 37° C. for up to 30 minutes. The reaction was terminated by adding acetonitrile, and then the resultant was centrifuged for 10 minutes at 4° C. to collect a supernatant. The supernatant was pretreated by methanol extraction method, and the concentration of the compound was analyzed by LC/MS/MS (ESI positive mode). The compound remaining rate was calculated from the obtained concentration of the compound.

With `Cc1ccc(-n2nc(C(C)(C)C)cc2NC(=O)Nc2ccc(OCCN3CCOCC3)c3ccccc23)cc1` [Comparative Compound 4c, 1-(3-tert-butyl-1-p-tolyl-1H-pyrazol-5-yl)-3-(4-(2-morpholinoethoxy)naphthalen-1-yl)urea.hydrochloride], the phospholipidosis judgement entry in series [1] was “positive”. The compound further had a microsomal CLint at 5 μM in series [2] of 321 µL/min/mg.
